Measured values: PubChem BioAssay (NCI)
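Dose response: 5 concentrations. Exposure: 48 h. Format: 96-well plates. Endpoint: linear interpolation; highest concentration if not reached. GI50: concentration for 50% inhibition of growth. TGI: total growth inhibition.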

How the values were obtained:
Test in all cases: inhibition of tumour cell growth, NCI panel, 48 h
[1] = system: ACHN renal
[2] = system: DU-145 prostate
[3] = system: HOP-62 NSCLC
[4] = system: IGROV1 ovarian
[5] = system: KM12 colon
[6] = system: MDA-MB-231 breast
[7] = system: RXF 393 renal
[8] = system: UACC-62 melanoma
[9] = system: UO-31 renal
[10] = system: EKVX NSCLC

| SMILES | GI50 [1] [µM] | TGI [1] [µM] | GI50 [2] [µM] | TGI [2] [µM] | GI50 [3] [µM] | TGI [3] [µM] | GI50 [4] [µM] | TGI [4] [µM] | GI50 [5] [µM] | TGI [5] [µM] | GI50 [6] [µM] | TGI [6] [µM] | GI50 [7] [µM] | TGI [7] [µM] | GI50 [8] [µM] | TGI [8] [µM] | GI50 [9] [µM] | TGI [9] [µM] | TGI [10] [µM] | GI50 [10] [µM] |
| --- | --- | --- | --- | --- | --- | --- | --- | --- | --- | --- | --- | --- | --- | --- | --- | --- | --- | --- | --- | --- |
| CCOc1c(Br)cc(C2C(C(=O)OC)=CN(C)C=C2C(=O)OC)cc1OC | 77.6 | > 100 | > 100 | > 100 | > 100 | > 100 | > 100 | > 100 | 38.6 | > 100 | 32.8 | > 100 | 24.1 | > 100 | 50.2 | > 100 | 28.8 | > 100 | – | – |
| COC(=O)/C=C1/CCC2[C@@H](C(=O)CC3[C@]2(C)CCC[C@@]3(C)C(=O)OC)C1C (stereo partly drawn) | – | 24.2 | – | – | – | 39.5 | – | 43.6 | – | 27 | – | – | – | – | – | 30.1 | – | 37.5 | 42.3 | – |
| CN(C)CCNC(=O)c1cc2ccccc2c2nc3ccccc3nc12 | – | 2.1 | – | – | – | 5 | – | > 20.7 | – | 2.89 | – | – | – | 2.33 | – | 7.3 | – | – | 7.37 | – |
| CS(=O)(=O)NNS(=O)(=O)c1cccc([N+](=O)[O-])c1 | – | > 100 | – | – | – | > 100 | – | > 100 | – | > 100 | – | – | – | > 100 | – | > 100 | – | > 100 | > 100 | – |
| COc1ccc2nc(-c3cc(-c4cc(OC)c(OC)c(OC)c4)n[nH]3)[nH]c2c1 | 2.63 | 10.7 | 2.29 | 8.28 | 2.02 | 5.77 | 1.9 | 7.11 | 1.7 | 3.69 | 2.87 | 12.9 | 2.49 | 12.3 | 1.12 | 2.52 | 1.57 | 4.11 | – | – |
| Cc1ccc(NC(=O)C(=O)C2C(=O)N(c3ccccc3)N=C2N)cc1C (stereo not drawn) | – | > 100 | – | – | – | > 100 | – | > 100 | – | > 100 | – | – | – | – | – | > 100 | – | > 100 | > 100 | – |
| CC(=O)OC(/C=C1/C=CC(=O)O1)COC(=O)c1ccccc1 (stereo not drawn) | – | > 31.2 | – | – | – | > 31.2 | – | > 31.2 | – | > 31.2 | – | – | – | > 31.2 | – | > 31.2 | – | > 31.2 | > 31.2 | – |
| CCOC(=O)/C(O)=C(/c1n[nH]c(=O)c2ccccc12)[N+](=O)[O-] | – | > 100 | – | – | – | > 100 | – | > 100 | – | > 100 | – | – | – | > 100 | – | > 100 | – | > 100 | > 100 | – |
| O=c1cccccc1NCCOCCNc1cccccc1=O | – | > 100 | – | – | – | > 100 | – | > 100 | – | > 100 | – | – | – | – | – | > 100 | – | > 100 | > 100 | – |
| Cc1ccc(NC(=O)CCC(CC(=O)C(C)(C)C)=NNC(=O)C(=O)NN)cc1C | – | > 100 | – | – | – | > 100 | – | > 100 | – | > 100 | – | – | – | > 100 | – | > 100 | – | > 100 | > 100 | – |
| CCOC12OC3=C(CC1CC1=C(CCC1=O)O2)C(=O)CC3 (stereo not drawn) | – | – | – | – | – | > 100 | – | > 100 | – | > 100 | – | – | – | > 100 | – | > 100 | – | > 100 | > 100 | – |
| Cc1cc(NS(=O)(=O)c2ccc(N=Nc3cc(N=Nc4ccc(S(=O)(=O)Nc5cc(C)nc(C)n5)cc4)c4c(NC(=O)C(Cl)Cl)cccc4c3OC(=O)C(Cl)Cl)cc2)nc(C)n1 (tested in a mixture with another compound) | – | 56.7 | – | – | – | 78.8 | – | 53.2 | – | 31.6 | – | – | – | 38.7 | – | 51.4 | – | 37.4 | 53.5 | – |
| COc1cc2nc3sc(C(=O)Nc4ccc(C(=O)OC(C)C)cc4)c(C(=O)Nc4ccc(Cl)cc4C)n3c(=O)c2cc1OC | 23.8 | > 100 | 1.25 | 11.4 | 18.7 | 52.2 | 0.69 | 17.8 | 1.29 | 13.3 | 11.2 | 38.4 | – | – | 6.8 | 91.8 | 25.7 | > 100 | > 100 | 22.8 |
| O=S(=O)(O)O.[NH-]C1CCCCC1[NH-].[Pt+2] (stereo not drawn) | 47.8 | > 100 | – | – | > 100 | > 100 | > 100 | > 100 | > 100 | > 100 | – | – | > 100 | > 100 | > 100 | > 100 | > 100 | > 100 | > 100 | > 100 |
| Oc1ccccc1-c1nn(CNc2cccc(Cl)c2)c(=S)o1 | – | – | – | – | 90.8 | > 100 | 81.5 | > 100 | 37.2 | > 100 | 60.2 | > 100 | 82.4 | > 100 | 41.5 | > 100 | > 100 | > 100 | > 100 | 67.2 |
| CCC[CH2][Sn]1([CH2]CCC)[O]C(=O)c2cc(I)cc(I)c2[O]1 | 1.35 | 2.63 | – | – | 2.13 | 4.12 | 1.81 | 3.36 | 1.61 | 2.99 | – | – | 0.559 | 1.97 | 1.01 | 2.17 | 1.49 | 2.82 | 3.4 | 1.35 |
| Cc1[nH]c2ccccc2c1C1Cc2ccccc2N1C(=O)/C=C/C=C/c1ccccc1 (stereo not drawn) | – | > 100 | – | – | – | > 100 | – | > 100 | – | > 100 | – | – | – | > 100 | – | > 100 | – | > 100 | > 100 | – |
| [O-]c1c2c(nn1-c1ccccc1)c1ccccc1c[n+]2Cc1ccccc1 | – | > 100 | – | – | – | > 100 | – | > 100 | – | > 100 | – | – | – | 7.33 | – | > 100 | – | > 100 | > 100 | – |
